Measurements: US12209102B2, “Heterocyclic compounds and uses thereof” (Kumquat Biosciences Inc., priority 2022, dated 2025)

Experiments:
K-Ras G12D = target: T1, K-Ras G12D (Homo sapiens, UniProt P01116, G12D); assay: HTRF resonance energy transfer assay, K-Ras G12D / SOS1 interaction; type: biochemical; details: HTRF assay of Example 5; read-out: IC50 against K-Ras G12D
T1 construct: made in house; host or cells: E. coli BL21 (DE3)
Procedure, shortened: (§1)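 Read-out: HTRF 665/620 nm ratio (excitation 337 nm) after roughly 10 min or longer incubation, used to derive IC50. Donor anti-GST-Eu on GST-K-Ras; acceptor anti-6His-XL665 on His-hSOS1. Duplicate dose series from 10 μM down to 0.01 μM.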

K-Ras G12S = target: T2, K-Ras G12S (Homo sapiens, UniProt P01116, G12S); assay: HTRF resonance energy transfer assay, K-Ras G12S / SOS1 interaction; type: biochemical; details: HTRF assay of Example 5; read-out: IC50 against K-Ras G12S
T2 construct: made in house; host or cells: E. coli BL21 (DE3)
Procedure, shortened: as §1

K-Ras G12V = target: T3, K-Ras G12V (Homo sapiens, UniProt P01116, G12V); assay: HTRF resonance energy transfer assay, K-Ras G12V / SOS1 interaction; type: biochemical; details: HTRF assay of Example 5; read-out: IC50 against K-Ras G12V
T3 construct: made in house; host or cells: E. coli BL21 (DE3)
Procedure, shortened: as §1

K-Ras WT = target: T4, K-Ras WT (Homo sapiens, UniProt P01116); assay: HTRF resonance energy transfer assay, K-Ras WT / SOS1 interaction; type: biochemical; details: HTRF assay of Example 5; read-out: IC50 against K-Ras WT
T4 construct: made in house; host or cells: E. coli BL21 (DE3)
Procedure, shortened: as §1

A549 cells = assay: Ras cellular assay, growth of cells with K-Ras G12S mutation (CellTiter-Glo); type: cell-based; details: Homo sapiens, cell growth, Example 9, G12S mutation, read-out: IC50 against A549 cells
Procedure, shortened: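 A549 cells (K-Ras G12S) in RPMI-1640 with 10% heat-inactivated FBS, seeded e.g. 800 per well in standard or ultra-low-attachment 384-well plates, treated next day with a dilution series (e.g. 10-point, 3-fold). Viability by CellTiter-Glo luminescence about 6 days later; IC50 from four-parameter fit.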

SW620 cells = assay: Ras cellular assay, growth of cells with K-Ras G12V mutation (CellTiter-Glo); type: cell-based; details: Homo sapiens, SW-620; cell growth, Example 9, G12V mutation; read-out: IC50 against SW620 cells
Procedure, shortened: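 SW620 (K-Ras G12V) cells, e.g. 800/well in RPMI-1640 with 10% heat-inactivated FBS on standard or ultra-low attachment plates, were dosed the day after plating with e.g. a 10-point 3-fold series. Viability by CellTiter-Glo luminescence about 6 days later; IC50 from four-parameter fit.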

T1 sequence (P01116 1-188 isoform P01116-2 G12D): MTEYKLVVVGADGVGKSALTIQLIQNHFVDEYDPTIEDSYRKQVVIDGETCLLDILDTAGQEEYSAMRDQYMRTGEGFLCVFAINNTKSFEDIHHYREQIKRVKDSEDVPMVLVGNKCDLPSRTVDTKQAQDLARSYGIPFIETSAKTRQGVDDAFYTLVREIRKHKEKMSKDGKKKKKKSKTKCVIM
T4 sequence (P01116 1-188 isoform P01116-2): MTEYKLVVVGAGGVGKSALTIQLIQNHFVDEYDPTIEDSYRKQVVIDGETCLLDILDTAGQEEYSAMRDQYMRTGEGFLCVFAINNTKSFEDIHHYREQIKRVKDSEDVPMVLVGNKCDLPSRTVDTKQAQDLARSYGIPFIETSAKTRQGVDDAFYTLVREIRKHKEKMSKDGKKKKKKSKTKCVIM
T3 sequence (P01116 1-188 isoform P01116-2 G12V): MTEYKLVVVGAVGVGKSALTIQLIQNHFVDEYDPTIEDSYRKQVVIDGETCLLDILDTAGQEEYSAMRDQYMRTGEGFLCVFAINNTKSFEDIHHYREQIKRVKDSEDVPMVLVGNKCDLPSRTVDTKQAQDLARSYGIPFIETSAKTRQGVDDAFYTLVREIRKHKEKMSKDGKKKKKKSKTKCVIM
T2 sequence (P01116 1-188 isoform P01116-2 G12S): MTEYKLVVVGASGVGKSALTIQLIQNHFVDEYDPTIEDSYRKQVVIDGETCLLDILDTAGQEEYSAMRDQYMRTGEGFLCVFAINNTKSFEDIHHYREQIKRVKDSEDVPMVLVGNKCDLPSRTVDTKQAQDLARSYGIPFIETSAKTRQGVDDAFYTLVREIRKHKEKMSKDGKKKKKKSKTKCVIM

| SMILES | IC50 (K-Ras G12D) [nM] | IC50 (K-Ras G12S) [nM] | IC50 (K-Ras G12V) [nM] | IC50 (K-Ras WT) [nM] | IC50 (A549 cells) [µM] | IC50 (SW620 cells) [µM] |
| --- | --- | --- | --- | --- | --- | --- |
| CC1(O)CC(N2CCOc3c(Cl)c(-c4ccc(F)c5sc(N)c(C#N)c45)c(F)c4nc(OC[C@@]56CCCN5C[C@H](F)C6)nc2c34)C1 (stereo partly drawn) [Compound 708, 2-amino-4-(8-chloro-10-fluoro-2-(((2R,7aS)-2-fluorotetrahydro-1H-pyrrolizin-7a(5H)-yl)methoxy)-4-(3-hydroxy-3-methylcyclobutyl)-5,6-dihydro-4H-[1,4]oxazepino[5,6,7-de]quinazolin-9-yl)-7-fluorobenzo[b]thiophene-3-carbonitrile] | < 100 | < 100 | < 100 | < 100 | < 5 | < 5 |
| N#Cc1c(N)sc2c(F)ccc(-c3c(Cl)c4c5c(nc(OC[C@@]67CCCN6C[C@H](F)C7)nc5c3F)N(C3CC5CCC3N5)CCO4)c12 (stereo partly drawn) [Compound 733, 4-(4-(7-azabicyclo[2.2.1]heptan-2-yl)-8-chloro-10-fluoro-2-(((2R,7aS)-2-fluorotetrahydro-1H-pyrrolizin-7a(5H)-yl)methoxy)-5,6-dihydro-4H-[1,4]oxazepino[5,6,7-de]quinazolin-9-yl)-2-amino-7-fluorobenzo[b]thiophene-3-carbonitrile] | < 100 | < 100 | < 100 | < 100 | < 5 | < 5 |
| N#Cc1c(N)sc2c(F)ccc(-c3c(Cl)c4c5c(nc(OC[C@@]67CCCN6C[C@H](F)C7)nc5c3F)N(C3CC(N)C3)CCO4)c12 (stereo partly drawn) [Compound 734, 2-amino-4-(4-(3-aminocyclobutyl)-8-chloro-10-fluoro-2-(((2R,7aS)-2-fluorotetrahydro-1H-pyrrolizin-7a(5H)-yl)methoxy)-5,6-dihydro-4H-[1,4]oxazepino[5,6,7-de]quinazolin-9-yl)-7-fluorobenzo[b]thiophene-3-carbonitrile] | < 100 | < 100 | < 100 | < 100 | < 5 | < 5 |
| CC1Oc2c(Cl)c(-c3ccc(F)c4sc(N)c(C#N)c34)c(F)c3nc(OC[C@@]45CCCN4C[C@H](F)C5)nc(c23)N([C@@H]2CCOC2)C1C (stereo partly drawn) [Compound 741, 2-amino-4-(8-chloro-10-fluoro-2-(((2R,7aS)-2-fluorotetrahydro-1H-pyrrolizin-7a(5H)-yl)methoxy)-5,6-dimethyl-4-((R)-tetrahydrofuran-3-yl)-5,6-dihydro-4H-[1,4]oxazepino[5,6,7-de]quinazolin-9-yl)-7-fluorobenzo[b]thiophene-3-carbonitrile] | < 100 | < 100 | < 100 | < 100 | < 5 | < 5 |
| N#Cc1c(N)sc2c(F)ccc(-c3c(Cl)c4c5c(nc(OC[C@@]67CCCN6C[C@H](F)C7)nc5c3F)N(C3CCC5(C3)CN(C(=O)C3CC3(F)F)C5)CCO4)c12 (stereo partly drawn) [Compound 746, 2-amino-4-(8-chloro-4-(2-(2,2-difluorocyclopropane-1-carbonyl)-2-azaspiro[3.4]octan-6-yl)-10-fluoro-2-(((2R,7aS)-2-fluorotetrahydro-1H-pyrrolizin-7a(5H)-yl)methoxy)-5,6-dihydro-4H-[1,4]oxazepino[5,6,7-de]quinazolin-9-yl)-7-fluorobenzo[b]thiophene-3-carbonitrile] | < 100 | < 100 | < 100 | < 100 | < 5 | < 5 |

Next, values leading:

| IC50 (K-Ras G12D) [nM] | IC50 (K-Ras G12S) [nM] | IC50 (K-Ras G12V) [nM] | IC50 (K-Ras WT) [nM] | IC50 (A549 cells) [µM] | IC50 (SW620 cells) [µM] | SMILES |
| --- | --- | --- | --- | --- | --- | --- |
| < 100 | < 100 | < 100 | < 100 | < 5 | < 5 | CC(=O)NC1CCC(N2CCOc3c(Cl)c(-c4ccc(F)c5sc(N)c(C#N)c45)c(F)c4nc(OC[C@@]56CCCN5C[C@H](F)C6)nc2c34)C1 (stereo partly drawn) [Compound 781, N-(3-(9-(2-amino-3-cyano-7-fluorobenzo[b]thiophen-4-yl)-8-chloro-10-fluoro-2-(((2R,7aS)-2-fluorotetrahydro-1H-pyrrolizin-7a(5H)-yl)methoxy)-5,6-dihydro-4H-[1,4]oxazepino[5,6,7-de]quinazolin-4-yl)cyclopentyl)acetamide] |
| < 100 | < 100 | < 100 | < 100 | < 5 | < 5 | N#Cc1c(N)sc2c(F)ccc(-c3c(Cl)c4c5c(nc(OC[C@@]67CCCN6C[C@H](F)C7)nc5c3F)N(C3CCOCC3)CCO4)c12 [Compound 813, 2-amino-4-(8-chloro-10-fluoro-2-(((2R,7aS)-2-fluorotetrahydro-1H-pyrrolizin-7a(5H)-yl)methoxy)-4-(tetrahydro-2H-pyran-4-yl)-5,6-dihydro-4H-[1,4]oxazepino[5,6,7-de]quinazolin-9-yl)-7-fluorobenzo[b]thiophene-3-carbonitrile] |
| < 100 | < 100 | < 100 | < 100 | < 5 | < 5 | N#Cc1c(N)sc2c(F)ccc(-c3c(Cl)c4c5c(nc(OC[C@@]67CCCN6C[C@H](F)C7)nc5c3F)N(C3CCC(NC=O)C3)CCO4)c12 (stereo partly drawn) [Compound 829, N-(3-(9-(2-amino-3-cyano-7-fluorobenzo[b]thiophen-4-yl)-8-chloro-10-fluoro-2-(((2R,7aS)-2—fluorotetrahydro-1H-pyrrolizin-7a(5H)-yl)methoxy)-5,6-dihydro-4H-[1,4]oxazepino[5,6,7-de]quinazolin-4-yl)cyclopentyl)formamide] |
| < 100 | < 100 | < 100 | < 100 | < 5 | < 5 | N#Cc1c(N)sc2c(F)ccc(-c3c(Cl)c4c5c(nc(OC[C@@]67CCCN6C[C@H](F)C7)nc5c3F)N(C3CC(NC=O)C3)CCO4)c12 (stereo partly drawn) [Compound 836, N-(3-(9-(2-amino-3-cyano-7-fluorobenzo[b]thiophen-4-yl)-8-chloro-10-fluoro-2-(((2R,7aS)-2-fluorotetrahydro-1H-pyrrolizin-7a(5H)-yl)methoxy)-5,6-dihydro-4H-[1,4]oxazepino[5,6,7-de]quinazolin-4-yl)cyclobutyl)formamide] |
| < 100 | < 100 | < 100 | < 100 | < 5 | < 5 | N#CCCCN1CCOc2c(Cl)c(-c3ccc(F)c4sc(N)c(C#N)c34)c(F)c3nc(OC[C@@]45CCCN4C[C@H](F)C5)nc1c23 [Compound 837, 2-amino-4-(8-chloro-4-(3-cyanopropyl)-10-fluoro-2-(((2R,7aS)-2-fluorotetrahydro-1H-pyrrolizin-7a(5H)-yl)methoxy)-5,6-dihydro-4H-[1,4]oxazepino[5,6,7-de]quinazolin-9-yl)-7-fluorobenzo[b]thiophene-3-carbonitrile] |
| < 100 | < 100 | < 100 | < 100 | < 5 | < 5 | N#Cc1c(N)sc2c(F)ccc(-c3c(Cl)c4c5c(nc(OC[C@@]67CCCN6C[C@H](F)C7)nc5c3F)N(C3CCCCC3O)CCO4)c12 (stereo partly drawn) [Compound 838, 2-amino-4-(8-chloro-10-fluoro-2-(((2R,7aS)-2-fluorotetrahydro-1H-pyrrolizin-7a(5H)-yl)methoxy)-4-(2-hydroxycyclohexyl)-5,6-dihydro-4H-[1,4]oxazepino[5,6,7-de]quinazolin-9-yl)-7-fluorobenzo[b]thiophene-3-carbonitrile] |
